Measured values: patent US20230203043A1, “NOVEL IMIDAZOPYRAZINE DERIVATIVES” (Hoffmann-La Roche Inc., priority 2020, published 2023)
Counter-ions that a name gives are not always drawn.

system: Acinetobacter baumannii ATCC17961; assay: Antimicrobial susceptibility testing: 90% growth inhibitory concentration (IC90) determination in Iso-Sensitest broth, OD600 growth; format: cell-based; settings: Acinetobacter baumannii, ATCC17961, 16 h, read-out: A. baumannii ATCC 17961 IC90 (uM), strain ATCC 17961, OD600 growth over 16 h
Summary of the method: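 Twofold compound dilutions (e.g. 50 to 0.097 μM final) in Iso-Sensitest broth with ~5×10^(5) CFU/ml, 35±2 °C. OD600 read every 20 min over 16 h; IC90 from growth inhibition during logarithmic phase.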

SMILES | IC90 [µM]
O=C(N[C@H]1CCNC1)N1CCN(C(=O)c2ccc(Nc3nccn4c(-c5c[nH]nc5C(F)(F)F)cnc34)cc2Cl)CC1 [Example 389, 4-[2-chloro-4-[[3-[3-(trifluoromethyl)-1H-pyrazol-4-yl]imidazo[1,2-a]pyrazin-8-yl]amino]benzoyl]-N-[(3S)-pyrrolidin-3-yl]piperazine-1-carboxamide formate] | 0.136
NCCCNC(=O)N1CCN(C(=O)c2ccc(Nc3nccn4c(-c5c[nH]nc5C(F)(F)F)cnc34)cc2Cl)CC1 [Example 390, N-(3-aminopropyl)-4-[2-chloro-4-[[3-[3-(trifluoromethyl)-1H-pyrazol-4-yl]imidazo[1,2-a]pyrazin-8-yl]amino]benzoyl]piperazine-1-carboxamide formate] | 0.177
O=C(N[C@@H]1CCNC1)N1CCN(C(=O)c2ccc(Nc3nccn4c(-c5c[nH]nc5C(F)(F)F)cnc34)cc2Cl)CC1 [Example 391, 4-[2-chloro-4-[[3-[3-(trifluoromethyl)-1H-pyrazol-4-yl]imidazo[1,2-a]pyrazin-8-yl]amino]benzoyl]-N-[(3R)-pyrrolidin-3-yl]piperazine-1-carboxamide formate] | 0.203
NCCNC(=O)N1CCN(C(=O)c2ccc(Nc3nccn4c(-c5c[nH]nc5C(F)(F)F)cnc34)cc2Cl)CC1 [Example 392, N-(2-aminoethyl)-4-[2-chloro-4-[[3-[3-(trifluoromethyl)-1H-pyrazol-4-yl]imidazo[1,2-a]pyrazin-8-yl]amino]benzoyl]piperazine-1-carboxamide formate] | 0.208
O=C(NCC1CNC1)N1CCN(C(=O)c2ccc(Nc3nccn4c(-c5c[nH]nc5C(F)(F)F)cnc34)cc2Cl)CC1 [Example 393, N-(azetidin-3-ylmethyl)-4-[2-chloro-4-[[3-[3-(trifluoromethyl)-1H-pyrazol-4-yl]imidazo[1,2-a]pyrazin-8-yl]amino]benzoyl]piperazine-1-carboxamide formate] | 0.239
O=C(NC1CNC1)N1CCN(C(=O)c2ccc(Nc3nccn4c(-c5c[nH]nc5C(F)(F)F)cnc34)cc2Cl)CC1 [Example 394, N-(azetidin-3-yl)-4-[2-chloro-4-[[3-[3-(trifluoromethyl)-1H-pyrazol-4-yl]imidazo[1,2-a]pyrazin-8-yl]amino]benzoyl]piperazine-1-carboxamide formate] | 0.331
NCCCC(=O)N1CCN(C(=O)c2ccc(Nc3nccn4c(-c5c[nH]nc5C(F)(F)F)cnc34)cc2Cl)CC1 [Example 399, 4-amino-1-[4-[2-chloro-4-[[3-[3-(trifluoromethyl)-1H-pyrazol-4-yl]imidazo[1,2-a]pyrazin-8-yl]amino]benzoyl]piperazin-1-yl]butan-1-one formate] | 0.214
NCCC(=O)N1CCN(C(=O)c2ccc(Nc3nccn4c(-c5c[nH]nc5C(F)(F)F)cnc34)cc2Cl)CC1 [Example 400, 3-amino-1-[4-[2-chloro-4-[[3-[3-(trifluoromethyl)-1H-pyrazol-4-yl]imidazo[1,2-a]pyrazin-8-yl]amino]benzoyl]piperazin-1-yl]propan-1-one formate] | 0.217
O=C(c1ccc(Nc2nccn3c(-c4c[nH]nc4C(F)(F)F)cnc23)cc1Cl)N1CCN(C(=O)C2CCNCC2)CC1 [Example 401, [2-chloro-4-[[3-[3-(trifluoromethyl)-1H-pyrazol-4-yl]imidazo[1,2-a]pyrazin-8-yl]amino]phenyl]-[4-(piperidine-4-carbonyl)piperazin-1-yl]methanone formate] | 0.273
Cc1cc(Nc2nccn3c(-c4c[nH]nc4C(F)(F)F)cnc23)ccc1C(=O)N1CCN(C(=O)NC2CNC2)CC1 [Example 408, N-(azetidin-3-yl)-4-[2-methyl-4-[[3-[3-(trifluoromethyl)-1H-pyrazol-4-yl]imidazo[1,2-a]pyrazin-8-yl]amino]benzoyl]piperazine-1-carboxamide formate] | 0.481
Cc1cc(Nc2nccn3c(-c4c[nH]nc4C(F)(F)F)cnc23)ccc1C(=O)N1CCN(C(=O)N[C@@H]2CCNC2)CC1 [Example 416, formic acid; 4-[2-methyl-4-[[3-[3-(trifluoromethyl)-1H-pyrazol-4-yl]imidazo[1,2-a]pyrazin-8-yl]amino]benzoyl]-N-[(3R)-pyrrolidin-3-yl]piperazine-1-carboxamide] | 0.441
Cc1cc(Nc2nccn3c(-c4c[nH]nc4C(F)(F)F)cnc23)ccc1C(=O)N1CCN(C(=O)NCCCN)CC1 [Example 417, N-(3-aminopropyl)-4-[2-methyl-4-[[3-[3-(trifluoromethyl)-1H-pyrazol-4-yl]imidazo[1,2-a]pyrazin-8-yl]amino]benzoyl]piperazine-1-carboxamide formate] | 0.506
Cc1cc(Nc2nccn3c(-c4c[nH]nc4C(F)(F)F)cnc23)ccc1C(=O)N1CCN(C(=O)CCN)CC1 [Example 418, 3-amino-1-[4-[2-methyl-4-[[3-[3-(trifluoromethyl)-1H-pyrazol-4-yl]imidazo[1,2-a]pyrazin-8-yl]amino]benzoyl]piperazin-1-yl]propan-1-one formate] | 0.583
Cc1cc(Nc2nccn3c(-c4cn(CC#N)nc4C(F)(F)F)cnc23)ccc1C(=O)N1CCN(C(=O)N[C@@H]2CNC[C@H]2O)CC1 [Example 419, 4-[4-[[3-[1-(cyanomethyl)-3-(trifluoromethyl)pyrazol-4-yl]imidazo[1,2-a]pyrazin-8-yl]amino]-2-methylbenzoyl]-N-[(3R,4R)-4-hydroxypyrrolidin-3-yl]piperazine-1-carboxamide formate] | 0.654
Cc1cc(Nc2nccn3c(-c4cn(CC#N)nc4C(F)(F)F)cnc23)ccc1C(=O)N1CCN(C(=O)[C@@H]2CCNC[C@@H]2O)CC1 [Example 421, formic acid; 2-[4-[8-[4-[4-[(3R,4R)-3-hydroxypiperidine-4-carbonyl]piperazine-1-carbonyl]-3-methylanilino]imidazo[1,2-a]pyrazin-3-yl]-3-(trifluoromethyl)pyrazol-1-yl]acetonitrile] | 0.629
Cc1cc(Nc2nccn3c(-c4cn(CC#N)nc4C(F)(F)F)cnc23)ccc1C(=O)N1CCN(C(=O)[C@@H]2C[C@@H](O)CN2)CC1 [Example 422, formic acid; 2-[4-[8-[4-[4-[(2S,4R)-4-hydroxypyrrolidine-2-carbonyl]piperazine-1-carbonyl]-3-methylanilino]imidazo[1,2-a]pyrazin-3-yl]-3-(trifluoromethyl)pyrazol-1-yl]acetonitrile] | 0.63
Cc1cc(Nc2nccn3c(-c4cn(CC#N)nc4C(F)(F)F)cnc23)ccc1C(=O)N1CCN(C(=O)[C@@H]2C[C@](C)(O)CN2)CC1 [Example 424, formic acid; 2-[4-[8-[4-[4-[(2S,4S)-4-hydroxy-4-methylpyrrolidine-2-carbonyl]piperazine-1-carbonyl]-3-methylanilino]imidazo[1,2-a]pyrazin-3-yl]-3-(trifluoromethyl)pyrazol-1-yl]acetonitrile] | 0.685

same assay, conditions: Acinetobacter baumannii, ATCC17961, 16 h, strain ATCC 17961, OD600 growth over 16 h, read-out: A. baumannii ATCC 17961 IC90

IC90 [µM] | SMILES
0.384 | CN(C)C(=O)c1ccc(Nc2nccn3c(-c4c[nH]nc4C(F)(F)F)cnc23)cc1Cl [Example 402, 2-chloro-N,N-dimethyl-4-[[3-[3-(trifluoromethyl)-1H-pyrazol-4-yl]imidazo[1,2-a]pyrazin-8-yl]amino]benzamide]
1.23 | NC(=O)c1ccc(Nc2nccn3c(-c4c[nH]nc4C(F)(F)F)cnc23)cc1Cl [Example 404, 2-chloro-4-[[3-[3-(trifluoromethyl)-1H-pyrazol-4-yl]imidazo[1,2-a]pyrazin-8-yl]amino]benzamide]
1.4 | O=C(NC1CNC1)c1ccc(Nc2nccn3c(-c4c[nH]nc4C(F)(F)F)cnc23)cc1Cl [Example 406, N-(azetidin-3-yl)-2-chloro-4-[[3-[3-(trifluoromethyl)-1H-pyrazol-4-yl]imidazo[1,2-a]pyrazin-8-yl]amino]benzamide]
1.42 | Cc1cc(Nc2nccn3c(-c4c[nH]nc4C(F)(F)F)cnc23)ccc1C(=O)N1CCN(C(=O)NCC2CNC2)CC1 [Example 410, N-(azetidin-3-ylmethyl)-4-[2-methyl-4-[[3-[3-(trifluoromethyl)-1H-pyrazol-4-yl]imidazo[1,2-a]pyrazin-8-yl]amino]benzoyl]piperazine-1-carboxamide]
2.2 | O=C(NC1CCNCC1)c1ccc(Nc2nccn3c(-c4c[nH]nc4C(F)(F)F)cnc23)cc1Cl [Example 413, 2-chloro-N-piperidin-4-yl-4-[[3-[3-(trifluoromethyl)-1H-pyrazol-4-yl]imidazo[1,2-a]pyrazin-8-yl]amino]benzamide]
4.04 | O=C(NC1CCCNC1)c1ccc(Nc2nccn3c(-c4c[nH]nc4C(F)(F)F)cnc23)cc1Cl (centres unmarked) [Example 414, 2-chloro-N-piperidin-3-yl-4-[[3-[3-(trifluoromethyl)-1H-pyrazol-4-yl]imidazo[1,2-a]pyrazin-8-yl]amino]benzamide]
0.746 | Cc1cc(Nc2nccn3c(-c4c[nH]nc4C(F)(F)F)cnc23)ccc1C(=O)N1CCN(C(=O)CCCN)CC1 [Example 420, 4-amino-1-[4-[2-methyl-4-[[3-[3-(trifluoromethyl)-1H-pyrazol-4-yl]imidazo[1,2-a]pyrazin-8-yl]amino]benzoyl]piperazin-1-yl]butan-1-one]

same assay, conditions: strain ATCC 17961, OD600 growth over 16 h, read-out: A. baumannii ATCC 17961 IC90

IC90 [µM] | SMILES
0.398 | NC1CC(NC(=O)c2ccc(Nc3nccn4c(-c5c[nH]nc5C(F)(F)F)cnc34)cc2Cl)C1 (centres unmarked) [Example 403, N-(3-aminocyclobutyl)-2-chloro-4-[[3-[3-(trifluoromethyl)-1H-pyrazol-4-yl]imidazo[1,2-a]pyrazin-8-yl]amino]benzamide]
1.3 | NC1CCC(NC(=O)c2ccc(Nc3nccn4c(-c5c[nH]nc5C(F)(F)F)cnc34)cc2Cl)CC1 (centres unmarked) [Example 405, N-(4-aminocyclohexyl)-2-chloro-4-[[3-[3-(trifluoromethyl)-1H-pyrazol-4-yl]imidazo[1,2-a]pyrazin-8-yl]amino]benzamide]
